This passage reports Kd results from patent publication EP1985629A1, “Pro-apoptotic molecules and therapeutic uses thereof” (UNIVERSITA DEGLI STUDI DI GENOVA, priority 2007, dated 2008).

Each structure is given as a SMILES string. Where a SMILES comes first, the peptide text is derived from it. [ ]: non-standard residue; d: D form. Aib = CC(C)(N)C(=O)O

For this experiment, the target named is T1, Bcl-XL (Homo sapiens, UniProt Q07817, S2L).
T1 construct: with the C-terminus truncated; His6; made in house; host or cells: Escherichia coli BL21 (pLys)
T1 sequence (Q07817 1-212 S2L): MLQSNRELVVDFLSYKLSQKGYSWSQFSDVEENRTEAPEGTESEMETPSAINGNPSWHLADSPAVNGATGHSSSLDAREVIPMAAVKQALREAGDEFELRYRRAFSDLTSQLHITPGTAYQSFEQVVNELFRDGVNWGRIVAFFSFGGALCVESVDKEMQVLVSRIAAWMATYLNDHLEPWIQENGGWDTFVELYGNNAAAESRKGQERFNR
Put plainly: Fluorescence anisotropy binding and competition binding assay. The note with it: competition binding assay: BakF-BH3 2E-8 M, competitor peptide 2E-7 M, Bcl-XL 2E-8 M to 1E-6 M; 45 min, 30°C; read-out: Weighted mean Kd. As to the method:
Fluorescence Anisotropy was monitored with a Polarion Instrument (Tecan, Austria): excitation wavelength = 485 nm, emission wavelength = 535 nm. […] Anisotropy values were studied at a fixed concentration of fluoresceinated Bak BH3 molecule (2E-8 M), a fixed concentration of peptide inhibitors (2E-7 M) and increasing concentrations of Bel-XL (from 2E-8 M to 1E-6 M). Experiments were performed in 96-wells black non-binding plates (Corning), the experimental volume was always 200 µl / well. Reagents were mixed at room temperature and maintained at a constant temperature (30°C) during the measurements. Anisotropy measurements were performed at different times of incubation to assess the stability of the reactions. […]
For simple binding experiments we evaluated the Kd using a nonlinear regression analysis [NLIN SAS] to fit the Lundblad equation [38]. […]
We calculated the expected Anisotropy value solving a third degree equation obtained extending the simple binding equation to a competitive binding inhibition assay. […]
Point estimates of each equilibrium constant were evaluated using meta-analytical tools weighting each experimental result for its estimated variance. […]
Fluorescence Anisotropy (FA) is a quantitative technique to analyze the interaction of a smaller fluorescent molecule with a larger non fluorescent molecule. […]

The term Kd denotes the free concentration of one partner at which half of the binding sites on the other are occupied at equilibrium, for simple one-to-one binding. For `CC[C@H](C)[C@H](NC(=O)[C@H](CCCNC(=N)N)NC(=O)[C@H](CCCNC(=N)N)NC(=O)[C@H](CC(C)C)NC(=O)[C@H](CCC(=O)O)NC(=O)[C@H](CCC(N)=O)NC(=O)C(C)(C)NC(=O)[C@@H](NC(=O)[C@H](Cc1ccc(O)cc1)NC(=O)[C@@H](NC(=O)[C@H](CCC(=O)O)NC(=O)[C@@H]1CCCN1C(=O)[C@H](CCCNC(=N)N)NC(=O)[C@H](CCSC)NC(=O)[C@@H](N)CC(=O)O)[C@@H](C)CC)[C@@H](C)CC)C(=O)NCC(=O)N[C@@H](CC(=O)O)C(=O)N[C@@H](C)C(=O)N[C@@H](Cc1ccccc1)C(=O)N[C@@H](CC(N)=O)C(=O)NC(C)(C)C(=O)N[C@@H](Cc1ccc(O)cc1)C(=O)N[C@@H](CCCCN)C(=O)N[C@@H](CCCCN)C(=O)N[C@@H](Cc1c[nH]c2ccccc12)C(=O)N[C@@H](CCCCN)C(=O)N[C@@H](CCSC)C(=O)N[C@@H](CCCNC(=N)N)C(=O)N[C@@H](CCCNC(=N)N)C(=O)N[C@@H](CC(N)=O)C(=O)N1CCC[C@H]1C(=O)N[C@@H](Cc1ccccc1)C(=O)N[C@@H](Cc1c[nH]c2ccccc12)C(=O)N[C@H](C(=O)N[C@@H](CCCCN)C(=O)N[C@H](C(=O)N[C@@H](CCC(N)=O)C(=O)N[C@@H](CCCNC(=N)N)C(N)=O)[C@@H](C)CC)[C@@H](C)CC` [Peptide 072RB] (H-DMRPEIYI[Aib]QELRRIGDAFN[Aib]YKKWKMRRNPFWIKIQR-NH2; N-terminus and C-terminus assumed), the Kd turned out to be 4.3 nM.
